Experimental data reported in PubChem BioAssay (NCI).
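1) Cells in 96-well plates. 2) Compound, 48 h, 5 concentrations. 3) Linear interpolation between surrounding doses. 4) Unreached endpoint = highest concentration. TGI: concentration producing complete growth inhibition.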

Legend:
Test in all cases: NCI-60 cell line screen, 48 h
U251 CNS = test system: U251 CNS
DMS 114 small cell lung = test system: DMS 114 small cell lung
HCT-15 colon = test system: HCT-15 colon
LXFL 529 NSCLC = test system: LXFL 529 NSCLC
EKVX NSCLC = test system: EKVX NSCLC
M14 melanoma = test system: M14 melanoma
HCC-2998 colon = test system: HCC-2998 colon
786-0 renal = test system: 786-0 renal
SF-539 CNS = test system: SF-539 CNS
TK-10 renal = test system: TK-10 renal
CCRF-CEM leukemia = test system: CCRF-CEM leukemia
OVCAR-4 ovarian = test system: OVCAR-4 ovarian
OVCAR-5 ovarian = test system: OVCAR-5 ovarian
RPMI-8226 leukemia = test system: RPMI-8226 leukemia
MALME-3M melanoma = test system: MALME-3M melanoma
HOP-18 NSCLC = test system: HOP-18 NSCLC
SNB-19 CNS = test system: SNB-19 CNS
K-562 leukemia = test system: K-562 leukemia
SK-MEL-2 melanoma = test system: SK-MEL-2 melanoma
OVCAR-8 ovarian = test system: OVCAR-8 ovarian
HOP-92 NSCLC = test system: HOP-92 NSCLC
SK-OV-3 ovarian = test system: SK-OV-3 ovarian
NCI-H226 lung = test system: NCI-H226 lung
UO-31 renal = test system: UO-31 renal
NCI-H23 lung = test system: NCI-H23 lung
NCI-H522 lung = test system: NCI-H522 lung
SN12C renal = test system: SN12C renal
HCT-116 colon = test system: HCT-116 colon
NCI-H460 lung = test system: NCI-H460 lung
SW-620 colon = test system: SW-620 colon
OVCAR-3 ovarian = test system: OVCAR-3 ovarian
SK-MEL-28 melanoma = test system: SK-MEL-28 melanoma
DMS 273 small cell lung = test system: DMS 273 small cell lung
HOP-62 NSCLC = test system: HOP-62 NSCLC
MOLT-4 leukemia = test system: MOLT-4 leukemia
LOX IMVI melanoma = test system: LOX IMVI melanoma
SF-268 CNS = test system: SF-268 CNS
KM12 colon = test system: KM12 colon
A498 renal = test system: A498 renal
M19-MEL melanoma = test system: M19-MEL melanoma
UACC-62 melanoma = test system: UACC-62 melanoma
IGROV1 ovarian = test system: IGROV1 ovarian
SR leukemia = test system: SR leukemia
SF-295 CNS = test system: SF-295 CNS
DLD-1 colon = test system: DLD-1 colon
A549 NSCLC = test system: A549 NSCLC
HT29 colon = test system: HT29 colon
SK-MEL-5 melanoma = test system: SK-MEL-5 melanoma
SNB-78 CNS = test system: SNB-78 CNS
UACC-257 melanoma = test system: UACC-257 melanoma
HL-60(TB) leukemia = test system: HL-60(TB) leukemia
SNB-75 CNS = test system: SNB-75 CNS
COLO 205 colon = test system: COLO 205 colon
MDA-N = test system: MDA-N
NCI/ADR-RES ovarian = test system: NCI/ADR-RES ovarian
T-47D breast = test system: T-47D breast
DU-145 prostate = test system: DU-145 prostate
RXF 393 renal = test system: RXF 393 renal
CAKI-1 renal = test system: CAKI-1 renal
PC-3 prostate = test system: PC-3 prostate
MDA-MB-435 = test system: MDA-MB-435
MCF7 breast = test system: MCF7 breast
BT-549 breast = test system: BT-549 breast
MDA-MB-231 breast = test system: MDA-MB-231 breast
HS 578T breast = test system: HS 578T breast
ACHN renal = test system: ACHN renal

SMILES: Cc1c(-c2ccccc2)c(=O)oc2ccc(Cl)cc12
- TGI (U251 CNS): > 100 µM
- TGI (DMS 114 small cell lung): > 100 µM
- TGI (HCT-15 colon): > 100 µM
- TGI (LXFL 529 NSCLC): > 100 µM
- TGI (EKVX NSCLC): > 100 µM
- TGI (M14 melanoma): > 100 µM
- TGI (HCC-2998 colon): > 100 µM
- TGI (786-0 renal): > 100 µM
- TGI (SF-539 CNS): > 100 µM
- TGI (TK-10 renal): > 100 µM
- TGI (CCRF-CEM leukemia): > 100 µM
- TGI (OVCAR-4 ovarian): > 100 µM
- TGI (OVCAR-5 ovarian): > 100 µM
- TGI (RPMI-8226 leukemia): > 100 µM
- TGI (MALME-3M melanoma): > 100 µM
- TGI (HOP-18 NSCLC): > 100 µM
- TGI (SNB-19 CNS): > 100 µM
- TGI (K-562 leukemia): > 100 µM
- TGI (SK-MEL-2 melanoma): > 100 µM
- TGI (OVCAR-8 ovarian): > 100 µM
- TGI (HOP-92 NSCLC): > 100 µM
- TGI (SK-OV-3 ovarian): > 100 µM
- TGI (NCI-H226 lung): > 100 µM
- TGI (UO-31 renal): > 100 µM
- TGI (NCI-H23 lung): > 100 µM
- TGI (NCI-H522 lung): > 100 µM
- TGI (SN12C renal): > 100 µM
- TGI (HCT-116 colon): > 100 µM
- TGI (NCI-H460 lung): > 100 µM
- TGI (SW-620 colon): > 100 µM
- TGI (OVCAR-3 ovarian): > 100 µM
- TGI (SK-MEL-28 melanoma): > 100 µM
- TGI (DMS 273 small cell lung): > 100 µM
- TGI (HOP-62 NSCLC): > 100 µM
- TGI (MOLT-4 leukemia): > 100 µM
- TGI (LOX IMVI melanoma): > 100 µM
- TGI (SF-268 CNS): > 100 µM
- TGI (KM12 colon): > 100 µM
- TGI (A498 renal): > 100 µM
- TGI (M19-MEL melanoma): > 100 µM
- TGI (UACC-62 melanoma): > 100 µM
- TGI (IGROV1 ovarian): > 100 µM
- TGI (SR leukemia): > 100 µM
- TGI (SF-295 CNS): > 100 µM
- TGI (DLD-1 colon): > 100 µM
- TGI (A549 NSCLC): > 100 µM
- TGI (HT29 colon): > 100 µM
- TGI (SK-MEL-5 melanoma): > 100 µM
- TGI (SNB-78 CNS): > 100 µM
- TGI (UACC-257 melanoma): > 100 µM
- TGI (HL-60(TB) leukemia): > 100 µM
- TGI (SNB-75 CNS): 43.7 µM
- TGI (COLO 205 colon): > 100 µM

SMILES: Cc1ccccc1N=CN(C)C
- TGI (U251 CNS): > 100 µM
- TGI (HCT-15 colon): > 100 µM
- TGI (MDA-N): > 100 µM
- TGI (NCI/ADR-RES ovarian): > 100 µM
- TGI (EKVX NSCLC): > 100 µM
- TGI (M14 melanoma): > 100 µM
- TGI (786-0 renal): > 100 µM
- TGI (T-47D breast): > 100 µM
- TGI (SF-539 CNS): > 100 µM
- TGI (TK-10 renal): > 100 µM
- TGI (CCRF-CEM leukemia): > 100 µM
- TGI (OVCAR-4 ovarian): > 100 µM
- TGI (OVCAR-5 ovarian): > 100 µM
- TGI (RPMI-8226 leukemia): 58.2 µM
- TGI (MALME-3M melanoma): > 100 µM
- TGI (SNB-19 CNS): > 100 µM
- TGI (K-562 leukemia): 44.4 µM
- TGI (SK-MEL-2 melanoma): > 100 µM
- TGI (OVCAR-8 ovarian): > 100 µM
- TGI (DU-145 prostate): > 100 µM
- TGI (HOP-92 NSCLC): > 100 µM
- TGI (SK-OV-3 ovarian): > 100 µM
- TGI (NCI-H226 lung): > 100 µM
- TGI (UO-31 renal): > 100 µM
- TGI (NCI-H23 lung): 61.8 µM
- TGI (NCI-H522 lung): 94.2 µM
- TGI (SN12C renal): > 100 µM
- TGI (RXF 393 renal): > 100 µM
- TGI (HCT-116 colon): > 100 µM
- TGI (CAKI-1 renal): > 100 µM
- TGI (OVCAR-3 ovarian): 81.2 µM
- TGI (SK-MEL-28 melanoma): > 100 µM
- TGI (PC-3 prostate): > 100 µM
- TGI (HOP-62 NSCLC): > 100 µM
- TGI (MOLT-4 leukemia): > 100 µM
- TGI (MDA-MB-435): > 100 µM
- TGI (LOX IMVI melanoma): > 100 µM
- TGI (SF-268 CNS): > 100 µM
- TGI (A498 renal): > 100 µM
- TGI (MCF7 breast): > 100 µM
- TGI (UACC-62 melanoma): > 100 µM
- TGI (BT-549 breast): > 100 µM
- TGI (IGROV1 ovarian): > 100 µM
- TGI (MDA-MB-231 breast): > 100 µM
- TGI (SR leukemia): > 100 µM
- TGI (HS 578T breast): > 100 µM
- TGI (SF-295 CNS): > 100 µM
- TGI (A549 NSCLC): > 100 µM
- TGI (HT29 colon): > 100 µM
- TGI (SK-MEL-5 melanoma): 43.6 µM
- TGI (UACC-257 melanoma): 71.1 µM
- TGI (HL-60(TB) leukemia): 39 µM
- TGI (ACHN renal): > 100 µM
- TGI (SNB-75 CNS): > 100 µM
- TGI (COLO 205 colon): > 100 µM
